Experimental data as given in US20250066389A1, “HETEROCYCLIC AMIDES AND METHODS OF USING THE SAME” (Rgenta Therapeutics, Inc., priority 2021, published 2025).
Counter-ions that a name gives are not always drawn.

Tested on: PMS1
Assay: Mini-Gene Reporter Assay—PMS1 (firefly luciferase mini-gene reporter transiently transfected into HEK293 cells)
Assay type: cell-based
Settings: Homo sapiens; at 5 uM; mini-gene firefly luciferase reporter in HEK293 cells; read-out: PMS1 % Effect at 5 uM
Method in brief: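 Luminescence (RLU) read-out of exon inclusion: compound dilutions, tested in duplicate, act on transiently transfected HEK293 cells carrying a firefly luciferase reporter fused downstream of the PMS1 skipped-exon region. Potency derived by Levenberg-Marquardt curve fitting, with percent effect at 5 μM.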

`CCOc1cc2nc(C)cn2cc1C(=O)Nc1cnc(N2CCC(N)CC2)cn1` [Compound 695] and `CCOc1cc2nc(C)cn2cc1C(=O)Nc1cnc(N2CCNC(C)C2)cn1` (stereo not shown) [Compound 698] cannot be ordered by activation at 5 µM: over 75% for the first, over 75% for the second.

First: CCOc1cc2nc(C)cn2cc1C(=O)Nc1cnc(N[C@H]2CCNC2)cn1 [Compound 696]
Second: CCOc1cc2nc(C)cn2cc1C(=O)Nc1cnc(N2CCNCC2C)cn1 (stereo not shown) [Compound 697]
The activation at 5 µM of the first is lower: 50 to 75% for the first, over 75% for the second.

With `CCOc1cn2nc(C)cc2cc1C(=O)Nc1cnc(N2CCN[C@@H](C)C2)cn1` [Compound 701, 6-ethoxy-2-methyl-N-{5-[(3S)-3-methylpiperazin-1-yl]pyrazin-2-yl}pyrazolo[1,5-a]pyridine-5-carboxamide] the activation at 5 µM was over 75%.

Same assay, conditions: Homo sapiens; mini-gene firefly luciferase reporter in HEK293 cells

`CCOc1cc2nc(C)cn2cc1C(=O)Nc1cnc(N2CCN[C@@H](C)C2)cn1` [Compound 700, 7-ethoxy-2-methyl-N-5-[(3S)-3-methylpiperazin-1-yl]pyrazin-2-ylimidazo[1,2-a]pyridine-6-carboxamide] and `CCOc1cc2nc(C)cn2cc1C(=O)Nc1cnc(N2C[C@@H](C)N[C@@H](C)C2)cn1` [Compound 719, N-(5-((3S,5R)-3,5-dimethylpiperazin-1-yl)pyrazin-2-yl)-7-ethoxy-2-methylimidazo[1,2-a]pyridine-6-carboxamide] cannot be ordered by IC50: under 1000 nM for the first, under 1000 nM for the second.

`CCOc1cc2nc(C)cn2cc1C(=O)Nc1ccc(N2CCN[C@@H](C)C2)cc1F` [Compound 702, 7-ethoxy-N-2-fluoro-4-[(3S)-3-methylpiperazin-1-yl]phenyl-2-methylimidazo[1,2-a]pyridine-6-carboxamide] and `Cc1cn2cc(C(=O)Nc3ccc(N4CCN[C@@H](C)C4)cc3F)c(OC3CCC3)cc2n1` [Compound 705, 7-cyclobutoxy-N-2-fluoro-4-[(3S)-3-methylpiperazin-1-yl]phenyl-2-methylimidazo[1,2-a]pyridine-6-carboxamide] cannot be ordered by IC50: under 1000 nM for the first, under 1000 nM for the second.

First: CCOc1cc2nc(C)cn2cc1C(=O)Nc1ccc(N2CCNC3(CC3)C2)cc1F [Compound 704, N-(4-4,7-diazaspiro[2.5]octan-7-yl-2-fluorophenyl)-7-ethoxy-2-methylimidazo[1,2-a]pyridine-6-carboxamide]
Second: CCOc1nc2nc(C)cn2cc1C(=O)Nc1ccc(N2CCNC3(CC3)C2)nn1 [Compound 725, N-(6-(4,7-diazaspiro[2.5]octan-7-yl)pyridazin-3-yl)-7-ethoxy-2-methylimidazo[1,2-a]pyrimidine-6-carboxamide formic acid]
The IC50 of the first is lower: under 1000 nM for the first, 1000 to 10000 nM for the second. The first is the more potent here.

`CCOc1cc2nn(C)cc2cc1C(=O)Nc1ccc(C2=CCNCC2)nn1` [Compound 708, 6-ethoxy-2-methyl-N-(6-(1,2,3,6-tetrahydropyridin-4-yl)pyridazin-3-yl)-2H-indazole-5-carboxamide formate] and `CCOc1cc2nc(C)cn2cc1C(=O)Nc1ccc(C2=CCNCC2)nn1` [Compound 709, 7-ethoxy-2-methyl-N-(6-(1,2,3,6-tetrahydropyridin-4-yl)pyridazin-3-yl)imidazo[1,2-a]pyridine-6-carboxamide hydrochloride] cannot be ordered by IC50: under 1000 nM for the first, under 1000 nM for the second.

First: CCOc1cc2nn(C)cc2cc1C(=O)Nc1cnc(N2CCN[C@@H](C)C2)cn1 [Compound 710, (S)-6-ethoxy-2-methyl-N-(5-(3-methylpiperazin-1-yl)pyrazin-2-yl)-2H-indazole-5-carboxamide formate]
Second: COc1cc2nn(C)cc2cc1C(=O)Nc1cnc(N2CCN[C@@H](C)C2)cn1 [Compound 736, (S)-6-methoxy-2-methyl-N-(5-(3-methylpiperazin-1-yl)pyrazin-2-yl)-2H-indazole-5-carboxamide hydrochloride]
The IC50 of the first is lower: under 1000 nM for the first, 1000 to 10000 nM for the second.

First: CCOc1nc2nc(C)cn2cc1C(=O)Nc1ccc(N2CCNCC2)cn1 [Compound 711, 7-ethoxy-2-methyl-N-(5-(piperazin-1-yl)pyridin-2-yl)imidazo[1,2-a]pyrimidine-6-carboxamide formate]
Second: CCOc1nc2nc(C)cn2cc1C(=O)Nc1ccc(N2CCNCC2)nn1 [Compound 732, 7-ethoxy-2-methyl-N-(6-(piperazin-1-yl)pyridazin-3-yl)imidazo[1,2-a]pyrimidine-6-carboxamide formate]
The IC50 of the first is lower: under 1000 nM for the first, 1000 to 10000 nM for the second.

`Cc1cn2cc(C(=O)Nc3ccc(N4CCNCC4)cn3)c(OC3CC3)cc2n1` [Compound 712, 7-cyclopropoxy-2-methyl-N-(5-(piperazin-1-yl)pyridin-2-yl) imidazo[1,2-a]pyridine-6-carboxamide hydrochloride] and `COc1cc2nc(C)cn2cc1C(=O)Nc1ccc(N2CCN[C@@H](C)C2)cn1` [Compound 718, (S)-7-methoxy-2-methyl-N-(5-(3-methylpiperazin-1-yl)pyridin-2-yl)imidazo[1,2-a]pyridine-6-carboxamide formate] cannot be ordered by IC50: under 1000 nM for the first, under 1000 nM for the second.

First: COc1cc2nc(C)cn2cc1C(=O)Nc1ccc(N2CCN[C@@H](C)C2)nn1 [Compound 713, (S)-7-methoxy-2-methyl-N-(6-(3-methylpiperazin-1-yl)pyridazin-3-yl)imidazo[1,2-a]pyridine-6-carboxamide hydrochloride]
Second: COc1cn2nc(C)cc2cc1C(=O)Nc1ccc(N2CCN[C@@H](C)C2)nn1 [Compound 726, (S)-6-methoxy-2-methyl-N-(6-(3-methylpiperazin-1-yl)pyridazin-3-yl)pyrazolo[1,5-a]pyridine-5-carboxamide hydrochloride]
The IC50 of the first is lower: under 1000 nM for the first, 1000 to 10000 nM for the second.

First: CCOc1nc2nc(C)cn2cc1C(=O)Nc1ccc(N2C[C@@H](C)N[C@@H](C)C2)nn1 [Compound 714, N-(6-((3R,5S)-3,5-dimethylpiperazin-1-yl)pyridazin-3-yl)-7-ethoxy-2-methylimidazo[1,2-a]pyrimidine-6-carboxamide hydrochloride]
Second: CCOc1nc2nc(C)cn2cc1C(=O)Nc1cnc(N2C[C@@H](C)N[C@@H](C)C2)cn1 [Compound 721, N-(5-((3R,5S)-3,5-dimethylpiperazin-1-yl)pyrazin-2-yl)-7-ethoxy-2-methylimidazo[1,2-a]pyrimidine-6-carboxamide hydrochloride]
The IC50 of the first is lower: under 1000 nM for the first, 1000 to 10000 nM for the second. The first is the more potent here.

First: CCOc1nc2nn(C)cc2cc1C(=O)Nc1ccc(N2CCNCC2)nn1 [Compound 715, 6-ethoxy-2-methyl-N-(6-(piperazin-1-yl)pyridazin-3-yl)-2H-pyrazolo[3,4-b]pyridine-5-carboxamide]
Second: CCOc1nc2nn(C)cc2cc1C(=O)Nc1ccc(N2CCNCC2)cn1 [Compound 730, 6-ethoxy-2-methyl-N-(5-(piperazin-1-yl)pyridin-2-yl)-2H-pyrazolo[3,4-b]pyridine-5-carboxamide]
The IC50 of the first is lower: under 1000 nM for the first, 1000 to 10000 nM for the second. The first is the more potent here.

Compared with `CCOc1cc2nn(C)cc2cc1C(=O)Nc1cnc(N2CCN[C@@H](CC)C2)cn1` [Compound 716, (S)-6-ethoxy-N-(5-(3-ethylpiperazin-1-yl)pyrazin-2-yl)-2-methyl-2H-indazole-5-carboxamide HCl Salt], `CCOc1cc2nn(C)cc2cc1C(=O)Nc1cnc(N2CCNC(C)(C)C2)cn1` [Compound 734, N-(5-(3,3-dimethylpiperazin-1-yl)pyrazin-2-yl)-6-ethoxy-2-methyl-2H-indazole-5-carboxamide hydrochloride] is higher in IC50: under 1000 nM for the first, 1000 to 10000 nM for the second. The first is the more potent here.

First: CCOc1cc2nn(C)cc2cc1C(=O)Nc1ccc(C2CCN[C@@H](C)C2)nn1 (stereo partly drawn) [Compound 717, 6-ethoxy-2-methyl-N-(6-((2S)-2-methylpiperidin-4-yl)pyridazin-3-yl)-2H-indazole-5-carboxamide]
Second: CCOc1cc2nn(C)cc2cc1C(=O)Nc1ccc(C2CCNCC2)nn1 [Compound 728, 6-ethoxy-2-methyl-N-(6-(piperidin-4-yl)pyridazin-3-yl)-2H-indazole-5-carboxamide hydrochloride]
The IC50 of the first is lower: under 1000 nM for the first, 1000 to 10000 nM for the second.

First: CCOc1cc2nn(C)cc2cc1C(=O)Nc1cnc(N2C[C@@H](C)N[C@@H](C)C2)cn1 [Compound 720, N-(5-((3R,5S)-3,5-dimethylpiperazin-1-yl)pyrazin-2-yl)-6-ethoxy-2-methyl-2H-indazole-5-carboxamide hydrochloride]
Second: CCOc1nc2nc(C)cn2cc1C(=O)Nc1cnc(N2CCN[C@@H](C)C2)cn1 [Compound 722, (S)-7-ethoxy-2-methyl-N-(5-(3-methylpiperazin-1-yl)pyrazin-2-yl)imidazo[1,2-a]pyrimidine-6-carboxamide formate]
The IC50 of the first is lower: under 1000 nM for the first, 1000 to 10000 nM for the second.

`CCOc1cc2nc(C)cn2cc1C(=O)Nc1ccc(N2CC[C@@H](NC(C)(C)C)C2)nn1` [Compound 723, (R)—N-(6-(3-(tert-butylamino)pyrrolidin-1-yl)pyridazin-3-yl)-7-ethoxy-2-methylimidazo[1,2-a]pyridine-6-carboxamide] and `CCOc1cc2nc(C)cn2cc1C(=O)Nc1ccc(N2CCC(NC(C)(C)C)C2)nn1` (stereo not shown) [Compound 733, N-(6-(3-(tert-butylamino)pyrrolidin-1-yl)pyridazin-3-yl)-7-ethoxy-2-methylimidazo[1,2-a]pyridine-6-carboxamide] fall in the same range of IC50: 1000 to 10000 nM for the first, 1000 to 10000 nM for the second.

`COc1cc2nc(C)cn2cc1C(=O)Nc1ccc(N2C[C@@H](C)N[C@@H](C)C2)cn1` [Compound 724, N-(5-((3R,5S)-3,5-dimethylpiperazin-1-yl)pyridin-2-yl)-7-methoxy-2-methylimidazo[1,2-a]pyridine-6-carboxamide] and `COc1cc2nc(C)cn2cc1C(=O)Nc1ccc(C2CCNCC2)cn1` [Compound 735, 7-methoxy-2-methyl-N-(5-(piperidin-4-yl)pyridin-2-yl) imidazo[1,2-a]pyridine-6-carboxamide hydrochloride] fall in the same range of IC50: 1000 to 10000 nM for the first, 1000 to 10000 nM for the second.

`CCOc1cc2nc(C)cn2cc1C(=O)Nc1ccc(N2CCN(C)CC2)nn1` [Compound 729, 7-ethoxy-2-methyl-N-(6-(4-methylpiperazin-1-yl)pyridazin-3-yl)imidazo[1,2-a]pyridine-6-carboxamide] and `CCOc1nc2nc(C)cn2cc1C(=O)Nc1ccc(N2CCN(C)CC2)nn1` [Compound 731, 7-ethoxy-2-methyl-N-(6-(4-methylpiperazin-1-yl)pyridazin-3-yl)imidazo[1,2-a]pyrimidine-6-carboxamide formic acid] fall in the same range of IC50: 1000 to 10000 nM for the first, 1000 to 10000 nM for the second.
